From ChEMBL document CHEMBL1201862, “PubChem BioAssay data set” (2004)
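Results reflect a 48-hour exposure of cells in 96-well plates to compound at five concentrations. The concentration for 50% growth inhibition is given as GI50.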 Calls of active or inactive are those of the source. Rule as the data show it: active = GI50 up to about 1.1 µM and inactive = higher.

Tests used:
Assay in all cases: NCI tumour cell line growth inhibition, 48 h
NCI-H226 = tested on: NCI-H226
HCT-15 = tested on: HCT-15
HCT-116 = tested on: HCT-116
MDA-N = tested on: MDA-N
HT-29 = tested on: HT-29
COLO 205 = tested on: COLO 205
NCI/ADR-RES = tested on: NCI/ADR-RES
HOP-92 = tested on: HOP-92
HL-60 = tested on: HL-60
SW-620 = tested on: SW-620
U-251 = tested on: U-251
MOLT-4 = tested on: MOLT-4
RPMI-8226 = tested on: RPMI-8226
CCRF-CEM = tested on: CCRF-CEM
CAKI-1 = tested on: CAKI-1
OVCAR-8 = tested on: OVCAR-8
K562 = tested on: K562
SNB-19 = tested on: SNB-19
PC-3 = tested on: PC-3
KM-20L2 = tested on: KM-20L2

Row | SMILES | GI50 (NCI-H226) | GI50 (HCT-15) [µM] | GI50 (HCT-116) | GI50 (MDA-N) | GI50 (HT-29) | GI50 (COLO 205) | GI50 (NCI/ADR-RES) | GI50 (HOP-92) | GI50 (HL-60) | GI50 (SW-620) | GI50 (U-251) | GI50 (MOLT-4) | GI50 (RPMI-8226) | GI50 (CCRF-CEM) | GI50 (CAKI-1) | GI50 (OVCAR-8) | GI50 (K562) | GI50 (SNB-19) | GI50 (PC-3) | GI50 (KM-20L2)
1 | OCCSCc1ccccc1 | > 100 µM (inactive) | > 100 | > 100 µM (inactive) | > 100 µM (inactive) | > 100 µM (inactive) | > 100 µM (inactive) | > 100 µM (inactive) | > 100 µM (inactive) | > 100 µM (inactive) | > 100 µM (inactive) | > 100 µM (inactive) | > 100 µM (inactive) | > 100 µM (inactive) | > 100 µM (inactive) | > 100 µM (inactive) | > 100 µM (inactive) | > 100 µM (inactive) | > 100 µM (inactive) | > 100 µM (inactive) | –
2 | C/C(O)=C1\CC2CN3CCc4c([nH]c5ccccc45)C3CC2CC1=O (stereo unspecified) | 54.1 µM (inactive) | 45.4 | 52.1 µM (inactive) | – | 67.1 µM (inactive) | > 100 µM (inactive) | – | – | 32.7 µM (inactive) | 38.5 µM (inactive) | > 100 µM (inactive) | 21.8 µM (inactive) | – | 29.4 µM (inactive) | – | 89.1 µM (inactive) | 28.5 µM (inactive) | > 100 µM (inactive) | – | 92 µM (inactive)
3 | CCCCCCCCCCCCCCCCCCNc1ccn(C2OC(CO)C(OP(=O)(O)OCC(COP(=O)(O)OCC3OC(n4cc(F)c(NCCCCCCCCCCCCCCCCCC)nc4=O)CC3O)OC(=O)CCCCCCCCCCCCCCC)C2O)c(=O)n1 (stereo unspecified) | > 100 µM (inactive) | > 100 | > 100 µM (inactive) | > 100 µM (inactive) | > 100 µM (inactive) | > 100 µM (inactive) | > 100 µM (inactive) | > 100 µM (inactive) | 67.1 µM (inactive) | > 100 µM (inactive) | > 100 µM (inactive) | > 100 µM (inactive) | > 100 µM (inactive) | 95.3 µM (inactive) | > 100 µM (inactive) | > 100 µM (inactive) | 3.01 µM (inactive) | > 100 µM (inactive) | > 100 µM (inactive) | –
4 | Cc1cc(C)nc(NS(=O)(=O)c2ccc(NC(=O)c3cccc4c(Nc5ccc(S(=O)(=O)N=C(N)N)cc5)c5ccc(Cl)cc5nc34)cc2)n1 | – | 39.4 | 17.4 µM (inactive) | – | 33.1 µM (inactive) | – | – | – | – | – | 15.8 µM (inactive) | 15.6 µM (inactive) | 23.5 µM (inactive) | 21.4 µM (inactive) | – | 39.4 µM (inactive) | 26.2 µM (inactive) | 23.1 µM (inactive) | – | 59 µM (inactive)
5 | CC(=O)C(=Cc1ccc(C=C(C(C)=O)C(C)=O)cc1)C(C)=O | 3.23 µM (inactive) | 0.977 | 0.637 µM (active) | 2.22 µM (inactive) | 1.2 µM (inactive) | 1.7 µM (inactive) | 2.28 µM (inactive) | 2.12 µM (inactive) | 0.31 µM (active) | 0.611 µM (active) | 1.79 µM (inactive) | 0.244 µM (active) | 0.282 µM (active) | 0.193 µM (active) | 1.74 µM (inactive) | 2.05 µM (inactive) | 0.286 µM (active) | 2.1 µM (inactive) | 1.9 µM (inactive) | –
6 | Cn1cnc2c(OCC3CCCCC3)nc(N)nc21 | 44.1 µM (inactive) | > 100 | > 100 µM (inactive) | > 100 µM (inactive) | 73.8 µM (inactive) | > 100 µM (inactive) | > 100 µM (inactive) | 32.4 µM (inactive) | > 100 µM (inactive) | > 100 µM (inactive) | > 100 µM (inactive) | > 100 µM (inactive) | > 100 µM (inactive) | > 100 µM (inactive) | > 100 µM (inactive) | > 100 µM (inactive) | > 100 µM (inactive) | > 100 µM (inactive) | > 100 µM (inactive) | –
